Test results from patent US20130302282A1, “Inhibitors of Hepatitis C Virus” (priority 2010, published 2013).
Where two headings read alike, the source gives them in different places.

Test system: 1b_Huh-Luc/Neo-ET cell line (bicistronic genotype 1b replicon in Huh 7 cells)
Experiment: HCV 1b replicon assay, luciferase readout
Assay type: cell-based, HCV genotype 1b
Description: Biological activity of the compounds of the invention was determined using an HCV replicon assay. The 1b_Huh-Luc/Neo-ET cell line persistently expressing a bicistronic genotype 1b replicon in Huh 7 cells was obtained from ReBLikon GMBH. This cell line was used to test compound inhibition using luciferase enzyme activity readout as a measurement of compound inhibition of replicon levels.
On Day 1 (the day after plating), each compound is added in triplicate to the cells. Plates incubated for 72 […] prior to running the luciferase assay. Enzyme activity was measured using a Bright-Glo Kit (cat. number E2620) manufactured by Promega Corporation. The following equation was used to generate a percent control value for each compound.
%Control=(Average Compound Value/Average Control)*100
The EC50 value was determined using GraphPad Prism and the following equation:
Y=Bottom+(Top−Bottom)/(1+10̂((LogIC50−X)*HillSlope))
EC50 values of compounds are repeated several times in the replicon assay.

[1] = Hepatitis C virus, Huh-7, 1b_Huh-Luc/Neo-ET cell line, read-out: EC50, half-maximal inhibition of HCV 1b replication
[2] = Hepatitis C virus, Huh-7, class symbol, HCV genotype 1b replicon, read-out: Inhibition of HCV genotype 1b replicon

SMILES	EC50 [1]	EC50 [2]	EC50 (class symbol, HCV genotype 1b replicon, read-out: Inhibition of HCV genotype 1b replicon)
CNC(=O)c1c(-c2ccc(F)cc2)oc2cc3c(cc12)C(C)CCCCN3S(C)(=O)=O (centres unmarked) [Compound B94]	≤ 10 nM	< 10 nM	–
CNC(=O)c1c(-c2ccc(Oc3ccccc3F)cc2)nn2cc3c(cc12)C(C)CCCN3S(C)(=O)=O (centres unmarked) [Compound B95]	–	100 to 1000 nM	–
CNC(=O)c1c(-c2ccc(Oc3cccc(F)c3)cc2)nn2cc3c(cc12)C(C)CCCN3S(C)(=O)=O (centres unmarked) [Compound B96]	–	10 to 100 nM	–
CNC(=O)c1c(-c2ccc(F)cc2)oc2cc3c(cc12)C(C)N(CC(F)(F)F)CCN3S(C)(=O)=O (centres unmarked) [Compound B107]	≤ 10 nM	< 10 nM	–
CNC(=O)c1c(-c2ccc(F)cc2)oc2cc3c(cc12)C(O)C(C)(C)CCN3S(C)(=O)=O (centres unmarked) [Compound B123]	10 to 100 nM	10 to 100 nM	–
CNC(=O)c1c(-c2ccc(F)cc2)oc2cc3c(cc12)C(C)N(C1CC1)CCN3S(C)(=O)=O (centres unmarked) [Compound B124]	10 to 100 nM	10 to 100 nM	–
CNC(=O)c1c(-c2ccc(F)cc2)nn2cc3c(cc12)CCCCCN3S(C)(=O)=O [Compound B125]	–	10 to 100 nM	–
[2H]C([2H])([2H])NC(=O)c1c(-c2ccc(F)cc2)nn2cc3c(cc12)CCCCCN3S(C)(=O)=O [Compound B126]	–	10 to 100 nM	–
CNC(=O)c1c(-c2ccc(F)cc2)oc2cc3c(cc12)C1CC1CCN3S(C)(=O)=O (centres unmarked) [Compound B127]	≤ 10 nM	< 10 nM	–
[2H]C([2H])([2H])NC(=O)c1c(-c2ccc(F)cc2)oc2cc3c(cc12)C1CC1CCN3S(C)(=O)=O (centres unmarked) [Compound B128]	≤ 10 nM	< 10 nM	–
CS(=O)(=O)N1CCCCCc2cc3c(-c4ncc[nH]4)c(-c4ccc(F)cc4)nn3cc21 [Compound B129]	–	10 to 100 nM	–
CS(=O)(=O)N1CCCCCc2cc3c(-c4ncc[nH]4)c(-c4ccc(F)cc4)oc3cc21 [Compound B130]	≤ 10 nM	< 10 nM	–
CNC(=O)c1c(-c2ccc(F)cc2)oc2cc3c(cc12)C(C)N(C(=O)c1ccc(F)cc1)CCN3S(C)(=O)=O (centres unmarked) [Compound B134]	10 to 100 nM	10 to 100 nM	–
CNC(=O)c1c(-c2ccc(Oc3ccc(F)cc3)cc2)oc2cc3c(cc12)C=CCCN3S(C)(=O)=O [Compound B135]	–	100 to 1000 nM	–
CNC(=O)c1c(-c2ccc(Oc3ccc(F)cc3)cc2)oc2cc3c(cc12)CCCCN3S(C)(=O)=O [Compound B136]	10 to 100 nM	10 to 100 nM	–
CNC(=O)c1c(-c2ccc(F)cc2)oc2cc3c(cc12)C(C)n1nncc1CN3S(C)(=O)=O (centres unmarked) [Compound B138]	≤ 10 nM	< 10 nM	–
CNC(=O)c1c(-c2ccc(F)cc2)oc2cc3c(cc12)C(C)N(CC(F)F)CCN3S(C)(=O)=O (centres unmarked) [Compound B139]	≤ 10 nM	< 10 nM	–
CNC(=O)c1c(-c2ccc(F)cc2)oc2cc3c(cc12)C(C)N(Cc1ccc(F)cc1)CCN3S(C)(=O)=O (centres unmarked) [Compound B142]	10 to 100 nM	10 to 100 nM	–
CCN1CCN(S(C)(=O)=O)c2cc3oc(-c4ccc(F)cc4)c(C(=O)NC)c3cc2C1C (centres unmarked) [Compound B144]	10 to 100 nM	10 to 100 nM	–
CNC(=O)c1c(-c2ccc(F)cc2)oc2cc3c(cc12)C(C)N(CCF)CCN3S(C)(=O)=O (centres unmarked) [Compound B147]	10 to 100 nM	10 to 100 nM	–
CNC(=O)c1c(-c2ccc(F)cc2)oc2cc3c(cc12)C(C(F)(F)F)OCCN3S(C)(=O)=O (centres unmarked) [Compound B148]	≤ 10 nM	< 10 nM	–
CNC(=O)c1c(-c2ccc(F)cc2)oc2cc3c(cc12)C(C)N(CC(=O)O)CCN3S(C)(=O)=O (centres unmarked) [Compound B149]	–	> 1000 nM	–

SMILES	EC50 [1]	EC50 [2]	EC50 (class symbol, HCV genotype 1b replicon, read-out: Inhibition of HCV genotype 1b replicon)
CNC(=O)c1c(-c2ccc(F)cc2)oc2cc3c(cc12)C(C)N(S(C)(=O)=O)CCN3S(C)(=O)=O (centres unmarked) [Compound B157]	10 to 100 nM	10 to 100 nM	–
CNC(=O)c1c(-c2ccc(Oc3ccc(F)cc3)cc2)oc2cc3c(cc12)C(C)n1nncc1CN3S(C)(=O)=O (centres unmarked) [Compound B158]	≤ 10 nM	< 10 nM	–
CNC(=O)c1c(-c2ccc(F)cc2)oc2cc3c(cc12)C(C)N([C@H](C)c1ccc(F)cc1)CCN3S(C)(=O)=O (some centres unmarked) [Compound B159]	10 to 100 nM	10 to 100 nM	–
[2H]C([2H])([2H])NC(=O)c1c(-c2ccc(Oc3ccc(F)cc3)cc2)oc2cc3c(cc12)C(C)N(C)CCN3S(C)(=O)=O (centres unmarked) [Compound B160]	10 to 100 nM	10 to 100 nM	–
CNC(=O)c1c(-c2ccc(F)cc2)oc2cc3c(cc12)C(C)N(c1ccc(F)cc1)CCN3S(C)(=O)=O (centres unmarked) [Compound B165]	10 to 100 nM	10 to 100 nM	–
CC1c2cc3c(-c4ncc[nH]4)c(-c4ccc(Oc5ccc(F)cc5)cc4)oc3cc2N(S(C)(=O)=O)CCN1C (centres unmarked) [Compound B166]	10 to 100 nM	10 to 100 nM	–
CNC(=O)c1c(-c2ccc(Oc3ccc(F)cc3)cc2)oc2cc3c(cc12)C(C)OC(C)(C)CN3S(C)(=O)=O (centres unmarked) [Compound B167]	10 to 100 nM	10 to 100 nM	–
CNC(=O)c1c(-c2ccc(Oc3ccc(F)cc3)cc2)oc2cc3c(cc12)C(C)OC(C)CN3S(C)(=O)=O (centres unmarked) [Compound B168]	≤ 10 nM	< 10 nM	–
CNC(=O)c1c(-c2ccc(F)cc2)oc2cc3c(cc12)C(C)N(C)C(=O)CN3S(C)(=O)=O (centres unmarked) [Compound B172]	10 to 100 nM	10 to 100 nM	–
CNC(=O)c1c(-c2ccc(F)cc2)oc2cc3c(cc12)C(C)NC(=O)CN3S(C)(=O)=O (centres unmarked) [Compound B173]	10 to 100 nM	10 to 100 nM	–
CNC(=O)c1c(-c2ccc(Oc3ccc(F)cc3)cc2)oc2cc3c(cc12)C(C)N(C)C(=O)CN3S(C)(=O)=O (centres unmarked) [Compound B174]	10 to 100 nM	10 to 100 nM	–
CNC(=O)c1c(-c2ccc(Oc3ccc(F)cc3)cc2)oc2cc3c(cc12)C(C)NC(=O)CN3S(C)(=O)=O (centres unmarked) [Compound B175]	10 to 100 nM	10 to 100 nM	–
CNC(=O)c1c(-c2ccc(Oc3ccc(F)cc3)cc2)oc2cc3c(cc12)C(C)OC1(CC1)CN3S(C)(=O)=O (centres unmarked) [Compound B178]	10 to 100 nM	10 to 100 nM	–
CNC(=O)c1c(-c2ccc(F)cc2)oc2cc3c(cc12)C(C)OC(C)(C)CN3S(C)(=O)=O (centres unmarked) [Compound B183]	10 to 100 nM	10 to 100 nM	–
CNC(=O)c1c(-c2ccc(F)cc2)oc2cc3c(cc12)C(C)OC1(CC1)CN3S(C)(=O)=O (centres unmarked) [Compound B188]	10 to 100 nM	10 to 100 nM	–
CNC(=O)c1c(-c2ccc(F)cc2)oc2cc3c(cc12)C(C)n1nnnc1CN3S(C)(=O)=O (centres unmarked) [Compound B189]	10 to 100 nM	10 to 100 nM	–
CNC(=O)c1c(-c2ccc(F)cc2)oc2cc3c(cc12)C(C)OC(C)CN3S(C)(=O)=O (centres unmarked) [Compound B190]	≤ 10 nM	< 10 nM	–
CNC(=O)c1c(-c2ccc(Oc3ccc(F)cc3)cc2)oc2cc3c(cc12)C(C)OC(CO)CN3S(C)(=O)=O (centres unmarked) [Compound B191]	–	–	< 10 nM
CNC(=O)c1c(-c2ccc(F)cc2)oc2cc3c(cc12)C(C)OC(CO)CN3S(C)(=O)=O (centres unmarked) [Compound B195]	10 to 100 nM	10 to 100 nM	–
CNC(=O)c1c(-c2ccc(F)cc2)oc2cc3c(cc12)C(C)OC(CS(C)(=O)=O)CN3S(C)(=O)=O (centres unmarked) [Compound B196]	≤ 10 nM	< 10 nM	–
CC1CCCN(S(C)(=O)=O)c2cc3oc(-c4ccc(Oc5ccc(F)cc5)cc4)c(-c4ncc[nH]4)c3cc21 (centres unmarked) [Compound B198]	≤ 10 nM	< 10 nM	–
CNC(=O)c1c(-c2ccc(F)cc2)oc2cc3c(cc12)C(C)c1ccccc1CN3S(C)(=O)=O (centres unmarked) [Compound B199]	10 to 100 nM	10 to 100 nM	–
